Like-named read-outs stand apart in the source and are kept apart here.
System: human cytotoxic T-lymphocyte responses
Test: Inhibition of human CTL responses (mixed leukocyte-tumor cultures, HT-144 melanoma, ^51 Cr release)
Type: cell-based
Settings: for inhibition at 10 µM / inhibition at 1 µM / inhibition at 0.1 µM: Homo sapiens, T-lymphocyte, read-out: Inhibition of CTL activity (%); for inhibition at 10 µM / inhibition at 1 µM / inhibition at 0.1 µM / CTL activity (% specific ^51 Cr release): 0.1% ethanol
Procedure, shortened: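 Effector CTLs came from 6-day mixed leukocyte–tumor cultures of donor PBMC with irradiated stimulator cells plus 1×10^-5 M hydrocortisone. Effectors were added to adhered ^51Cr-labelled target cells overnight at 37 °C; specific ^51Cr release gave percent inhibition, mean±SEM of triplicates.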

[1] = Test 1, donor I, 1 × 10^-5 molar, effector to target 6:1
[2] = Test 1, donor I, 1 × 10^-6 molar, effector to target 6:1
[3] = Test 2, donor II, 1 × 10^-6 molar, effector to target 6:1
[4] = Test 2, donor II, 1 × 10^-7 molar, effector to target 6:1
[5] = Test 1, donor I, 1 × 10^-7 molar, effector to target 6:1
[6] = Test 2, donor III, 1 × 10^-6 molar, effector to target 32:1
[7] = Test 2, donor III, 1 × 10^-7 molar, effector to target 32:1
[8] = Test 3, donor IV, 1 × 10^-6 molar, effector to target 24:1
[9] = Test 3, donor IV, 1 × 10^-7 molar, effector to target 24:1

**Q.** How did the inhibition at 10 µM [1] turn out when `C=C1/C(=C\C=C2/CCC[C@]3(C)[C@@H]([C@H](C)C[C@H](O)CC(C)(C)O)CC[C@@H]23)C[C@@H](O)C[C@@H]1O` [1α,23S,25-(OH)3 --D3, 1α,23S,25-Trihydroxycholecalciferol] was run?
**A.** Its inhibition at 10 µM is 95%.

**Q.** And the inhibition at 1 µM [2]?
**A.** Its inhibition at 1 µM is 72%.

**Q.** And the inhibition at 1 µM [3]?
**A.** Its inhibition at 1 µM is 62%.

**Q.** And the inhibition at 0.1 µM [4]?
**A.** Its inhibition at 0.1 µM is 73%.

**Q.** What about the “suppression of generation of human cytotoxic T-lymphocytes (in words)” value (Table IV) of the same molecule?
**A.** Its value is “suppressed the generation of human cytotoxic T-lymphocytes”.

**Q.** And the “CTL activity (% specific ^51 Cr release)” value [1]?
**A.** The value was 2 ± 3 % specific ^51 Cr release.

**Q.** What about the “CTL activity (% specific ^51 Cr release)” value [2] of the same molecule?
**A.** The value was 12 ± 3 % specific ^51 Cr release.

**Q.** What about the “CTL activity (% specific ^51 Cr release)” value [3] of the same molecule?
**A.** The value was 14 ± 7 % specific ^51 Cr release.

**Q.** And the “CTL activity (% specific ^51 Cr release)” value [4]?
**A.** The value was 10 ± 2 % specific ^51 Cr release.

**Q.** For `C=C1/C(=C\C=C2/CCC[C@]3(C)[C@@H]([C@H](C)/C=C/[C@H](C)[C@](C)(O)CO)CC[C@@H]23)C[C@@H](O)C[C@@H]1O` [1α,25S,26-(OH)3 --D2, 1α,25S,26-Trihydroxyergocalciferol], which inhibition at 1 µM [2] is on record?
**A.** Its inhibition at 1 µM is 54%.

**Q.** What about the inhibition at 0.1 µM [5] of the same molecule?
**A.** The inhibition at 0.1 µM was 76%.

**Q.** What about the inhibition at 1 µM [6] of the same molecule?
**A.** Its inhibition at 1 µM is 100%.

**Q.** What about the inhibition at 0.1 µM [7] of the same molecule?
**A.** The inhibition at 0.1 µM was 87%.

**Q.** What about the inhibition at 1 µM [8] of the same molecule?
**A.** The inhibition at 1 µM was 82%.

**Q.** And the inhibition at 0.1 µM [9]?
**A.** Its inhibition at 0.1 µM is 40%.

**Q.** And the “CTL activity (% specific ^51 Cr release)” value [2]?
**A.** The value was 17 ± 4 % specific ^51 Cr release.

**Q.** And the “CTL activity (% specific ^51 Cr release)” value [5]?
**A.** Its value is 9 ± 2 % specific ^51 Cr release.

**Q.** And the “CTL activity (% specific ^51 Cr release)” value [6]?
**A.** The value was -4 ± 2 % specific ^51 Cr release.

**Q.** What about the “CTL activity (% specific ^51 Cr release)” value [7] of the same molecule?
**A.** Its value is 7 ± 2 % specific ^51 Cr release.

**Q.** What about the “CTL activity (% specific ^51 Cr release)” value [8] of the same molecule?
**A.** Its value is 10 ± 2 % specific ^51 Cr release.

**Q.** And the “CTL activity (% specific ^51 Cr release)” value [9]?
**A.** Its value is 34 ± 10 % specific ^51 Cr release.

**Q.** With `C=C1/C(=C\C=C2/CCC[C@]3(C)[C@@H]([C@H](C)C=CC[C@](C)(O)CO)CC[C@@H]23)C[C@@H](O)C[C@@H]1O` [1α,25S,26-(OH)3 --Δ^22 -D3, 1α,25S,26-Trihydroxy-Δ^22-cholecalciferol] as the molecule, how does the inhibition at 10 µM [1] read?
**A.** Its inhibition at 10 µM is 63%.

**Q.** What about the inhibition at 1 µM [2] of the same molecule?
**A.** Its inhibition at 1 µM is 70%.

**Q.** What about the inhibition at 1 µM [3] of the same molecule?
**A.** Its inhibition at 1 µM is 49%.

**Q.** What about the inhibition at 0.1 µM [4] of the same molecule?
**A.** The inhibition at 0.1 µM was 97%.

**Q.** What about the “CTL activity (% specific ^51 Cr release)” value [1] of the same molecule?
**A.** The value was 16 ± 4 % specific ^51 Cr release.

**Q.** And the “CTL activity (% specific ^51 Cr release)” value [2]?
**A.** The value was 13 ± 8 % specific ^51 Cr release.

**Q.** And the “CTL activity (% specific ^51 Cr release)” value [3]?
**A.** Its value is 19 ± 4 % specific ^51 Cr release.

**Q.** And the “CTL activity (% specific ^51 Cr release)” value [4]?
**A.** The value was 1 ± 4 % specific ^51 Cr release.

Source: US4749710A, “Immunosuppressive agents” (priority 1985, dated 1988)
